According to patent US11286281B2, “Homodetic cyclic peptides targeting alpha-4-beta-7 integrin” (priority 2017, dated 2022):
Numbered stars: 1 amine (or outer) side, 2 acyl side, 3 side chain; on linkers, the order of the positions; unused ones are H or OH. Square brackets hold non-standard residues; d marks the D form. Peptide text beside a SMILES is read from it. X1 = O=C(c1ccc(-c2ccc(N3CCNCC3)cc2)c(CN[*:1])c1)[*:2]

Target: T1, integrin α4β7 (Mus musculus, UniProt P26011+Q00651)
T1 construct: host or cells: TK-1 mouse T-cell lymphoma cells
T1 sequence (Q00651 41-1039): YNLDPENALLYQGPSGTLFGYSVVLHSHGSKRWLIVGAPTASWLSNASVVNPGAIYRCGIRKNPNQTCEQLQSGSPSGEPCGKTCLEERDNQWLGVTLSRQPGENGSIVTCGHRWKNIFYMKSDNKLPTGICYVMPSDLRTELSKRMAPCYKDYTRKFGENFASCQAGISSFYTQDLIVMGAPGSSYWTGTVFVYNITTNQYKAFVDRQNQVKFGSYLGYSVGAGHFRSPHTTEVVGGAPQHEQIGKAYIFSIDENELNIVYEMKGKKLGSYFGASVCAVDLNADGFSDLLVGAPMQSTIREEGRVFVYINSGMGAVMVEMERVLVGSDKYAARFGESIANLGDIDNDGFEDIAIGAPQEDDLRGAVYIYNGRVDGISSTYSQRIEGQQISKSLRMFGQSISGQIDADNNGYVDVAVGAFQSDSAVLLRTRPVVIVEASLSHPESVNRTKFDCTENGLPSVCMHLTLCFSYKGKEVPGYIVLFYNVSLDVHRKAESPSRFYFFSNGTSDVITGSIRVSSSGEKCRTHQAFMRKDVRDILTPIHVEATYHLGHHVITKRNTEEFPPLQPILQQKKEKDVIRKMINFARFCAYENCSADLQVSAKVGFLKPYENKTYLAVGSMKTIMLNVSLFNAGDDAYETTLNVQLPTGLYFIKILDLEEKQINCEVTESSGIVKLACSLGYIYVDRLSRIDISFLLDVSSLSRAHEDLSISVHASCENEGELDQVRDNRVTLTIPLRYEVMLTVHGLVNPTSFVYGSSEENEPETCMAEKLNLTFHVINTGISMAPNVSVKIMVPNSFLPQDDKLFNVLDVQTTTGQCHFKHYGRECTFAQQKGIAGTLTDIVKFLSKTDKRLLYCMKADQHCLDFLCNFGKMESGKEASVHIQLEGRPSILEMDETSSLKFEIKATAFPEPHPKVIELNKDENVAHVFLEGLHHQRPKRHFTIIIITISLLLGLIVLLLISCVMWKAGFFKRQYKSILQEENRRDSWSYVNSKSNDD
T1 sequence (P26011 20-806): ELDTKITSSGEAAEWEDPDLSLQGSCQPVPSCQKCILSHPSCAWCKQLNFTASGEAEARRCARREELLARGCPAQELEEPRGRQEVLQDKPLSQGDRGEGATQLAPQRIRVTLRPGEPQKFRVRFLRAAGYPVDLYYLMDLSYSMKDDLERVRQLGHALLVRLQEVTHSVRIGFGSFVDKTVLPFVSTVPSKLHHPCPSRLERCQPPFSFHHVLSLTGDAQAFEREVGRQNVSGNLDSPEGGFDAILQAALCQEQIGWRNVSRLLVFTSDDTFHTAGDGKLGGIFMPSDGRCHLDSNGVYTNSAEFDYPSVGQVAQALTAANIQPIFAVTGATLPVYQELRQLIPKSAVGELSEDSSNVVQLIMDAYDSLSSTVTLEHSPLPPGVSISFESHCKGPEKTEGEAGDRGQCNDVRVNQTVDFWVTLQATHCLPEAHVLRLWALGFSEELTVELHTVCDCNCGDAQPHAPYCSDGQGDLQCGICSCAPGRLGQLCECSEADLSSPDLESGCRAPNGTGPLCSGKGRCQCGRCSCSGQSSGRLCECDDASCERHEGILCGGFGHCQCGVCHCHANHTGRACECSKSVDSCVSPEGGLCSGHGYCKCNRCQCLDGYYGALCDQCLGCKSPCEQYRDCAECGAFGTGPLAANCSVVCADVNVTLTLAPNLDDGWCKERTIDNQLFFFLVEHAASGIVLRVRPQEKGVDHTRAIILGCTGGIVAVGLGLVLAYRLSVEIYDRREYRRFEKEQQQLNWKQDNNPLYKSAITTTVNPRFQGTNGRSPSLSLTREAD
Experiment: Integrin α4β7-MAdCAM mouse cell adhesion assay (TK-1 cells)
Assay type: cell-based
Conditions: for IC50: TK-1 cells, read-out: IC50 in mouse α4β7-containing cell adhesion
Procedure: TK-1 mouse T-cells lymphoma cell lines (ATCC CRL2396) were cultured in RPMI 1640 medium (HyClone SH30027.1) supplemented with 10% FBS (Seradigm) and 1% Penicillin-Streptomycin. A 96-well plate (Costar, 3603) was coated with 100 μl/well of recombinant mouse MAdCAM-1 Fc Chimera (R&D Systems, 993-MC-050) solution at 0.25 μg/ml in coating buffer (50 mM sodium carbonate, pH 9.6). The plate was incubated overnight at 4° C. and washed twice with 150 μl per well wash buffer (0.05% Tween 20 in PBS), blocked with 250 μl per well blocking buffer (1% non-fat dry milk in PBS), and incubated for 2 hours at room temperature. TK-1 cells were resuspended at 10 million cells/ml in PBS containing […] and incubated at 37° C. for 30 min in a 50 ml tube. […] The plate was emptied by inverting and blotting on paper towels and washed manually twice with PBS. 100 μl PBS was then added to each well. The fluorescence was read (Ex495/Em515) using a plate reader (Tecan Infinite 1000). To calculate the dose response, the fluorescence value of control wells not containing cells was subtracted from each test well.

SMILES	fold difference in IC50 between mouse α4β7-containing and human α4β7-containing cell adhesion (TK-1 versus RPMI8866, weaker in mouse)	IC50
CC(C)C[C@@H]1NC(=O)c2ccc(-c3ccc(N4CCNCC4)cc3)c(c2)CNC(=O)[C@@H]2CCCN2C(=O)[C@H](C)NC(=O)[C@H]([C@@H](C)O)NC(=O)[C@H](CC(=O)O)NC1=O [Compound 8] (cyclo(P[X1]LDTA))	~10 fold	–
CC(C)C[C@@H]1NC(=O)c2ccc(-c3ccc(N4CCN(C(=O)COCC(=O)N5CCN(c6ccc(-c7ccc8cc7CNC(=O)[C@@H]7CCCN7C(=O)[C@H](C)NC(=O)[C@H]([C@@H](C)O)NC(=O)[C@H](CC(=O)O)NC(=O)[C@H](CC(C)C)NC8=O)cc6)CC5)CC4)cc3)c(c2)CNC(=O)[C@@H]2CCCN2C(=O)[C@H](C)NC(=O)[C@H]([C@@H](C)O)NC(=O)[C@H](CC(=O)O)NC1=O [Compound 17]	–	~97 nM
CC(C)C[C@@H]1NC(=O)c2ccc(-c3ccc(N4CCN(Cc5cccc(CN6CCN(c7ccc(-c8ccc9cc8CNC(=O)[C@@H]8CCCN8C(=O)[C@H](C)NC(=O)[C@H]([C@@H](C)O)NC(=O)[C@H](CC(=O)O)NC(=O)[C@H](CC(C)C)NC9=O)cc7)CC6)c5)CC4)cc3)c(c2)CNC(=O)[C@@H]2CCCN2C(=O)[C@H](C)NC(=O)[C@H]([C@@H](C)O)NC(=O)[C@H](CC(=O)O)NC1=O [Compound 18]	–	~68 nM
